Measurements from patent publication US20250136576A1, “Heterocyclic Compounds and Uses Thereof” (ACEA Therapeutics, Inc., priority 2021, published 2025).
Where two headings read alike, the source gives them in different places.

Tested on: KM12-luc cells
Assay: Cell proliferation and growth inhibition assay (CCK-8) in KM12-luc
Type: cell-based
Conditions: KM12-luc cells, treated with test compounds for 72 hrs, CCK-8 viability, read-out: NTRK IC50 in KM12-luc
Procedure, shortened: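 Cells were grown at 37 °C, 5% CO2 with 10% FBS: MV-4-11 in IMDM, H1975 in RPMI 1640, KM12-luc in DMEM. Viability was read by CCK-8 (1-4 hrs reagent incubation, absorbance at OD450). IC50 came from a non-linear sigmoidal dose-response fit.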

SMILES | IC50 (KM12-Luc, 72 h) [nM] | IC50 [nM]
CN1CCN(c2ccc(C(=O)Nc3c[nH]c4cnc(Nc5cc(F)cc(F)c5)nc34)c(NC3CCOCC3)c2)CC1 [Compound 491, N-(2-((3,5-difluorophenyl)amino)-5H-pyrrolo[3,2-d]pyrimidin-7-yl)-4-(4-methylpiperazin-1-yl)-2-((tetrahydro-2H-pyran-4-yl)amino)benzamide] | > 3330 | –
CN(C)CCN(C)c1ccc(C(=O)Nc2c[nH]c3cnc(Nc4cc(F)cc(F)c4)nc23)c(NC2CCOCC2)c1 [Compound 493, N-(2-((3,5-difluorophenyl)amino)-5H-pyrrolo[3,2-d]pyrimidin-7-yl)-4-((2-(dimethylamino)ethyl)(methyl)amino)-2-((tetrahydro-2H-pyran-4-yl)amino)benzamide] | > 10000 | –
COCCCN(C)c1cc(N2CCN(C)CC2)ccc1C(=O)Nc1c[nH]c2cnc(Nc3cc(F)cc(F)c3)nc12 [Compound 494, N-(2-((3,5-difluorophenyl)amino)-5H-pyrrolo[3,2-d]pyrimidin-7-yl)-2-((3-methoxypropyl)(methyl)amino)-4-(4-methylpiperazin-1-yl)benzamide] | > 1000 | –
CN1CCN(c2ccc(C(=O)Nc3c[nH]c4ccc(Nc5cc(F)cc(F)c5)cc34)c(NC3CCOCC3)c2)CC1 [Compound 497, N-(5-((3,5-difluorophenyl)amino)-1H-indol-3-yl)-4-(4-methylpiperazin-1-yl)-2-((tetrahydro-2H-pyran-4-yl)amino)benzamide] | 4030 | –
CN(C)CCN(C)c1ccc(C(=O)Nc2c[nH]c3ccc(Nc4cc(F)cc(F)c4)cc23)c(NC2CCOCC2)c1 [Compound 500, N-(5-((3,5-difluorophenyl)amino)-1H-indol-3-yl)-4-((2-(dimethylamino)ethyl)(methyl)amino)-2-((tetrahydro-2H-pyran-4-yl)amino)benzamide] | 3570 | –
COCCCN(C)c1cc(N2CCN(C)CC2)ccc1C(=O)Nc1c[nH]c2ccc(Nc3cc(F)cc(F)c3)cc12 [Compound 501, N-(5-((3,5-difluorophenyl)amino)-1H-indol-3-yl)-2-((3-methoxypropyl)(methyl)amino)-4-(4-methylpiperazin-1-yl)benzamide] | > 1000 | –
CN1CCN(c2ccc(C(=O)Nc3c[nH]c4cnc(Oc5cc(F)cc(F)c5)nc34)c(NC3CCOCC3)c2)CC1 [Compound 503, N-(2-(3,5-difluorophenoxy)-5H-pyrrolo[3,2-d]pyrimidin-7-yl)-4-(4-methylpiperazin-1-yl)-2-((tetrahydro-2H-pyran-4-yl)amino)benzamide] | 3640 | –
CN1CCN(c2ccc(C(=O)Nc3c[nH]c4ccc(Cc5cc(F)cc(F)c5)cc34)c(NC3CCOCC3)c2)CC1 [Compound 505, N-(5-(3,5-difluorobenzyl)-1H-indol-3-yl)-4-(4-methylpiperazin-1-yl)-2-((tetrahydro-2H-pyran-4-yl)amino)benzamide] | > 1000 | –
CN(C)CCN(C)c1ccc(C(=O)Nc2c[nH]c3ccc(Cc4cc(F)cc(F)c4)cc23)c(NC2CCOCC2)c1 [Compound 507, N-(5-(3,5-difluorobenzyl)-1H-indol-3-yl)-4-(2-(dimethylamino)ethyl)(methylamino)-2-((tetrahydro-2H-pyran-4-yl)amino) benzamide] | > 1000 | –
COCCCN(C)c1cc(N2CCN(C)CC2)ccc1C(=O)Nc1c[nH]c2ccc(Cc3cc(F)cc(F)c3)cc12 [Compound 508, N-(5-(3,5-difluorobenzyl)-1H-indol-3-yl)-2-((3-methoxypropyl)(methyl)amino)-4-(4-methylpiperazin-1-yl)benzamide] | > 1000 | –
COc1cnc(Nc2ccc(N3CC[C@@H](N(C)C)C3)c(NC(C)=O)c2)nc1-c1c[nH]c2c(F)cccc12 [Compound R-280, (R)—N-(2-(3-(dimethylamino)pyrrolidin-1-yl)-5-((4-(7-fluoro-1H-indol-3-yl)-5-methoxypyrimidin-2-yl)amino)phenyl)acetamide] | 15.6 | –
COc1cnc(Nc2ccc(N3CC[C@@H](N(C)C)C3)c(NC(C)=O)c2)nc1-c1cn(C)c2c(F)cccc12 [Compound R-281, (R)—N-(2-(3-(dimethylamino)pyrrolidin-1-yl)-5-((4-(7-fluoro-1-methyl-1H-indol-3-yl)-5-methoxypyrimidin-2-yl)amino)phenyl)acetamide] | 121 | –
COc1cnc(Nc2ccc(N3CC[C@@H](N(C)C)C3)c(NC(C)=O)c2)nc1-c1c[nH]c2c(OC)cccc12 [Compound R-288, (R)—N-(2-(3-(dimethylamino)pyrrolidin-1-yl)-5-((5-methoxy-4-(7-methoxy-1H-indol-3-yl)pyrimidin-2-yl)amino)phenyl)acetamide] | 15.5 | –
CN(C)[C@@H]1CCN(c2ccc(Nc3ncc(C(F)(F)F)c(-c4c[nH]c5c(F)cccc45)n3)cc2N)C1 [Compound R-345, (R)-4-(3-(dimethylamino)pyrrolidin-1-yl)-N^1-(4-(7-fluoro-1H-indol-3-yl)-5-(trifluoromethyl)pyrimidin-2-yl)benzene-1,3-diamine] | 6.2 | –
CC(=O)Nc1cc(Nc2ncc(C(F)(F)F)c(-c3cn(C)c4c(F)cccc34)n2)ccc1N1CC[C@@H](N(C)C)C1 [Compound R-353, (R)—N-(2-(3-(dimethylamino)pyrrolidin-1-yl)-5-((4-(7-fluoro-1-methyl-1H-indol-3-yl)-5-(trifluoromethyl)pyrimidin-2-yl)amino)phenyl)acetamide] | 64.3 | –
CN(C)[C@@H]1CCN(c2ccc(Nc3ncc(C(F)(F)F)c(-c4cn(C)c5c(F)cccc45)n3)cc2N)C1 [Compound R-354, (R)-4-(3-(dimethylamino)pyrrolidin-1-yl)-N^1-(4-(7-fluoro-1-methyl-1H-indol-3-yl)-5-(trifluoromethyl)pyrimidin-2-yl)benzene-1,3-diamine] | 69.1 | –
Cc1cccc2c(-c3nc(Nc4ccc(N5CC[C@@H](N(C)C)C5)c(N)c4)ncc3C(F)(F)F)c[nH]c12 [Compound R-367, (R)-4-(3-(dimethylamino)pyrrolidin-1-yl)-N^1-(4-(7-methyl-1H-indol-3-yl)-5-(trifluoromethyl)pyrimidin-2-yl)benzene-1,3-diamine] | 5.7 | –
COc1cccc2c(-c3nc(Nc4ccc(N5CC[C@@H](N(C)C)C5)c(N)c4)ncc3Cl)cn(C)c12 [Compound R-414, (R)—N^1-(5-chloro-4-(7-methoxy-1-methyl-1H-indol-3-yl)pyrimidin-2-yl)-4-(3-(dimethylamino)pyrrolidin-1-yl)benzene-1,3-diamine] | – | 12.4
CC(=O)Nc1cc(Nc2ncc(Cl)c(-c3cn(C)c4c(F)cccc34)n2)ccc1N1CC[C@@H](N(C)C)C1 [Compound R-415, (R)—N-(5-((5-chloro-4-(7-fluoro-1-methyl-1H-indol-3-yl)pyrimidin-2-yl)amino)-2-(3-(dimethylamino)pyrrolidin-1-yl)phenyl)acetamide] | 66.7 | –
COc1cccc2c(-c3nc(Nc4ccc(N5CC[C@@H](N(C)C)C5)c(N)c4)ncc3Cl)cn(C)c12 [Compound R-420, (R)—N^1-(5-chloro-4-(7-methoxy-1-methyl-1H-indol-3-yl)pyrimidin-2-yl)-4-(3-(dimethylamino)pyrrolidin-1-yl)benzene-1,3-diamine] | – | 72
Cc1cccc2c(-c3nc(Nc4ccc(N5CC[C@@H](N(C)C)C5)c(N)c4)ncc3Cl)c[nH]c12 [Compound R-425, (R)—N^1-(5-chloro-4-(7-methyl-1H-indol-3-yl)pyrimidin-2-yl)-4-(3-(dimethylamino)pyrrolidin-1-yl)benzene-1,3-diamine] | 11.3 | –
Cc1cccc2c(-c3nc(Nc4ccc(N5CC[C@@H](N(C)C)C5)c(N)c4)ncc3Cl)cn(C)c12 [Compound R-431, (R)—N^1-(5-chloro-4-(1,7-dimethyl-1H-indol-3-yl)pyrimidin-2-yl)-4-(3-(dimethylamino)pyrrolidin-1-yl)benzene-1,3-diamine] | 31.8 | –
CC(=O)Nc1cc(Nc2ncc(Cl)c(-c3cn(C)c4c(C)cccc34)n2)ccc1N1CC[C@@H](N(C)C)C1 [Compound R-432, (R)—N-(5-((5-chloro-4-(1,7-dimethyl-1H-indol-3-yl)pyrimidin-2-yl)amino)-2-(3-(dimethylamino)pyrrolidin-1-yl)phenyl)acetamide] | 130 | –
COc1cccc2c(-c3nc(Nc4ccc(N5CC[C@@H](N(C)C)C5)c(N)c4)ncc3Cl)cn(C)c12 [Compound R-439, (R)—N^1-(5-chloro-4-(7-methoxy-1-methyl-1H-indol-3-yl)pyrimidin-2-yl)-4-(3-(dimethylamino)pyrrolidin-1-yl)benzene-1,3-diamine] | – | 128
CN(C)[C@H]1CCN(c2ccc(Nc3ncc(C(F)(F)F)c(-c4c[nH]c5c(F)cccc45)n3)cc2N)C1 [Compound S-345, (S)-4-(3-(dimethylamino)pyrrolidin-1-yl)-N^1-(4-(7-fluoro-1H-indol-3-yl)-5-(trifluoromethyl)pyrimidin-2-yl)benzene-1,3-diamine] | 8.2 | –
CC(=O)Nc1cc(Nc2ncc(C(F)(F)F)c(-c3cn(C)c4c(F)cccc34)n2)ccc1N1CC[C@H](N(C)C)C1 [Compound S-353, (S)—N-(2-(3-(dimethylamino)pyrrolidin-1-yl)-5-((4-(7-fluoro-1-methyl-1H-indol-3-yl)-5-(trifluoromethyl)pyrimidin-2-yl)amino)phenyl)acetamide] | 35.2 | –
CN(C)[C@H]1CCN(c2ccc(Nc3ncc(C(F)(F)F)c(-c4cn(C)c5c(F)cccc45)n3)cc2N)C1 [Compound S-354, (S)-4-(3-(dimethylamino)pyrrolidin-1-yl)-N^1-(4-(7-fluoro-1-methyl-1H-indol-3-yl)-5-(trifluoromethyl)pyrimidin-2-yl)benzene-1,3-diamine] | 56.3 | –
Cc1cccc2c(-c3nc(Nc4ccc(N5CC[C@H](N(C)C)C5)c(N)c4)ncc3C(F)(F)F)c[nH]c12 [Compound S-367, (S)-4-(3-(dimethylamino)pyrrolidin-1-yl)-N^1-(4-(7-methyl-1H-indol-3-yl)-5-(trifluoromethyl)pyrimidin-2-yl)benzene-1,3-diamine] | 4.6 | –
